In series [1] the test system is Influenza A virus. As to the kind of experiment: Antiviral activity against Influenza A virus J/8178/09 infected in MDCK cells assessed as inhibition of virus-induced cytopathic effect at 50 uM after 48 hrs. Type of series: functional. As to conditions: for inhibition at 50 µM: Influenza A virus, J/8178/09, MDCK, 48 h. (In general: Protection from cytopathic effect is a common read-out in antiviral testing.)

The subject of series [2] is Influenza A virus. As to the kind of experiment: Antiviral activity against Influenza A virus (A/Hong Kong/1/1968(H3N2)) infected in MDCK cells assessed as inhibition of virus-induced cytopathic effect at 50 uM after 48 hrs. Type of series: functional. The following applies: for inhibition at 50 µM: Influenza A virus, MDCK, 48 h.
Series [3] can be described thus: Cytotoxicity against MDCK cells after 72 hrs. Type of series: cell-based, Canis lupus familiaris. As to conditions: dog.
Series [4] is described as follows: Inhibition of Clostridium perfringens neuraminidase by chemiluminescence based assay.
The nature of series [5]: Induction of fluorescence at 100 uM relative to 4-methylumbelliferone. Type of series: physicochemical.
Series [6] is described as follows: Induction of fluorescence quenching at 100 uM relative to 4-methylumbelliferone. Type of series: physicochemical.
Series [7] in a line: Inhibition of Clostridium perfringens neuraminidase by fluorescence based assay.

Active and inactive are the calls of the source. The calls are words filed in the database; no cut-off is given here.

As for `O=C(/C=C/c1ccc(O)cc1)OC[C@]1(O)CO[C@H](O[C@H]2[C@H](Oc3ccc(/C=C/C(=O)c4ccc(O)cc4O)cc3)O[C@H](CO)[C@@H](O)[C@@H]2O)[C@H]1O`, the inhibition result in the series on Influenza A virus [1] and with Influenza A virus [2] was “inactive” each time.

With `O=C1C[C@@H](c2ccc(O[C@@H]3O[C@H](CO)[C@@H](O)[C@H](O)[C@H]3O)cc2)Oc2cc(O)ccc21` [LIQUIRITIN], the inhibition result with Influenza A virus [1] and in the series with Influenza A virus [2] was “inactive” each time. This compound came in with a CC50 at 72 h in series [3] of over 239 µM.

As for `COc1ccc(-c2coc3cc(O)ccc3c2=O)cc1` [FORMONONETIN], the 50% inhibitory concentration (IC50) in series [4] is 0.34 µM; in series [7] it was 13.6 µM. Besides, the figures for the Activity in series [5] and in series [6] were 15.4% and -12.4%, respectively. The CC50 at 72 h in series [3] was 123 µM.

Take `CC(C)=CCc1c(O)ccc(C(=O)/C=C/c2cc(O)c3c(c2)C=CC(C)(C)O3)c1O`: the results for the “inhibition (INH)” value in the series on Influenza A virus [1] and in the series on Influenza A virus [2] were 29.7% and 48.1%, respectively. In series [3], the CC50 at 72 h came out at 135 µM.

On to `CC(C)=CCc1cc([C@@H]2CC(=O)c3ccc(O)c(CC=C(C)C)c3O2)ccc1O` [GLABROL], for which the inhibition entry in the series with Influenza A virus [1] and in the series with Influenza A virus [2] was “inactive” each time. For the same compound, the figures for the IC50 in series [4] and in series [7] were 0.13 µM and 2.17 µM, respectively. In addition, the Activity in series [5] stood at 1.18%; in series [6], 37.4%. In series [3], this compound yielded a CC50 at 72 h of 25.4 µM.

On to `CC1(C)C=Cc2c(ccc3c2OCC(O)C3)O1` (configuration not stated), for which, in the series on Influenza A virus [1], the inhibition at 50 µM came to 36.1%. The IC50 in series [4] was 0.64 µM; in series [7], 2.88 µM. Further, the values for the Activity in series [5] and in series [6] were 0% and 15%, respectively. Further, the inhibition entry in the series with Influenza A virus [2] was “inactive”. Besides, the CC50 at 72 h in series [3] was found to be 336 µM.

On to `CC1(C)C=Cc2c(ccc([C@@H]3COc4c(ccc5c4C=CC(C)(C)O5)C3)c2O)O1` [HISPAGLABRIDIN B], for which the results for the inhibition at 50 µM in the series on Influenza A virus [1] and in the series on Influenza A virus [2] were 48.4% and 31.2%, respectively. The figures for the IC50 in series [4] and in series [7] were 0.17 µM and 4.23 µM, respectively. Further, the Activity in series [5] turned out to be 0.05%; in series [6], 15.1%. In series [3], this compound yielded a CC50 at 72 h of 39.2 µM.

With `CCOC(=O)C1=C[C@@H](OC(CC)CC)[C@H](NC(C)=O)[C@@H](N)C1` [OSELTAMIVIR], the results for the IC50 in series [4] and in series [7] were 110 µM and 125 µM, respectively. Moreover, the figures for the Activity in series [5] and in series [6] were 0.05% and 12.8%, respectively.

Consider `O=C1C[C@@H](c2ccc(O[C@@H]3O[C@H](CO)[C@@H](O)[C@H](O)[C@H]3O[C@H]3OC[C@@](O)(COC(=O)c4c[nH]c5ccccc45)[C@@H]3O)cc2)Oc2cc(O)ccc21`, for which the inhibition entry with Influenza A virus [1] and in the series on Influenza A virus [2] was “inactive” throughout.

In the case of `O=C1C[C@@H](c2ccc(O)cc2)Oc2cc(O[C@@H]3O[C@H](CO)[C@@H](O)[C@H](O)[C@H]3O)cc(O)c21` [PRUNIN], in the series with Influenza A virus [1], the “inhibition (INH)” value stood at 49.6%. The inhibition entry in the series on Influenza A virus [2] was “inactive”. In addition, the CC50 at 72 h in series [3] was found to be 126 µM.

In the case of `O=C1C[C@@H](c2ccc(O)cc2)Oc2cc(O)ccc21` [LIQUIRTIGENIN], the inhibition entry in the series with Influenza A virus [1] and in the series with Influenza A virus [2] was “inactive” throughout. This compound displayed a CC50 at 72 h in series [3] of 301 µM.

In the case of `CC1(C)C=Cc2c(ccc(-c3coc4cc(O)ccc4c3=O)c2O)O1` [GLABRONE], the figures for the IC50 in series [4] and in series [7] were 0.07 µM and 11.7 µM, respectively. Besides, the figures for the Activity in series [5] and in series [6] were 0.68% and 28.3%, respectively. Besides, in the series with Influenza A virus [2], the inhibition at 50 µM came out at 24.2%. In series [3], the CC50 at 72 h was found to be 90.8 µM.

Broadly, the inhibition is the share of the control response that was lost under treatment. By CC50 is commonly meant the concentration at which the toxic effect on the cells reaches its halfway point. A higher CC50 goes with lower toxicity to the cells. Broadly, the IC50 is the midpoint of a concentration-inhibition curve. A high value points to weaker potency in that assay.

(Values after ChEMBL document CHEMBL3124906 (J Nat Prod, 2014).)
